# Values of other authors, collected in patent publication US20080241076A1, “Method and composition for increasing Erythropoietin” (priority 2007, published 2008).
# B1: Nattokinase: potent fibrinolytic enzyme extracted from a Japanese food called Natto (protein, UniProt P35835 107-381, looked up)
# Subtilisin NAT: AQSVPYGISQIKAPALHSQGYTGSNVKVAVIDSGIDSSHPDLNVRGGASFVPSETNPYQDGSSHGTHVAGTIAALNNSIGVLGVAPSASLYAVKVLDSTGSGQYSWIINGIEWAISNNMDVINMSLGGPTGSTALKTVVDKAVSSGIVVAAAAGNEGSSGSTSTVGYPAKYPSTIAVGAVNSSNQRASFSSVGSELDVMAPGVSIQSTLPGGTYGAYNGTSMATPHVAGAAALILSKHPTWTNAQVRDRLESTATYLGNSFYYGKGLINVQAAAQ
# B2: plasmin: the body's natural fibrinolytic enzyme (protein, UniProt P00747 20-580; P00747 581-810, looked up)
# Plasmin heavy chain A: EPLDDYVNTQGASLFSVTKKQLGAGSIEECAAKCEEDEEFTCRAFQYHSKEQQCVIMAENRKSSIIIRMRDVVLFEKKVYLSECKTGNGKNYRGTMSKTKNGITCQKWSSTSPHRPRFSPATHPSEGLEENYCRNPDNDPQGPWCYTTDPEKRYDYCDILECEEECMHCSGENYDGKISKTMSGLECQAWDSQSPHAHGYIPSKFPNKNLKKNYCRNPDRELRPWCFTTDPNKRWELCDIPRCTTPPPSSGPTYQCLKGTGENYRGNVAVTVSGHTCQHWSAQTPHTHNRTPENFPCKNLDENYCRNPDGKRAPWCHTTNSQVRWEYCKIPSCDSSPVSTEQLAPTAPPELTPVVQDCYHGDGQSYRGTSSTTTTGKKCQSWSSMTPHRHQKTPENYPNAGLTMNYCRNPDADKGPWCFTTDPSVRWEYCNLKKCSGTEASVVAPPPVVLLPDVETPSEEDCMFGNGKGYRGKRATTVTGTPCQDWAAQEPHRHSIFTPETNPRAGLEKNYCRNPDGDVGGPWCYTTNPRKLYDYCDVPQCAAPSFDCGKPQVEPKKCPGR
# Plasmin light chain B: VVGGCVAHPHSWPWQVSLRTRFGMHFCGGTLISPEWVLTAAHCLEKSPRPSSYKVILGAHQEVNLEPHVQEIEVSRLFLEPTRKDIALLKLSSPAVITDKVIPACLPSPNYVVADRTECFITGWGETQGTFGAGLLKEAQLPVIENKVCNRYEFLNGRVQSTELCAGHLAGGTDSCQGDSGGPLVCFEKDKYILQGVTSWGLGCARPNKPGVYVRVSRFVTWIEGVMRNN
# modifications: plasmin
# notes: the body's natural fibrinolytic enzyme
# Experiments:
# renal EPO production = details: animal studies
# kidney production of EPO = details: dog kidneys; substances given separately
# [1] = human, in vivo
# erythrocyte = details: Carnitine supplementation
# hemoglobin levels = details: hemodialysis patients
# responsiveness to EPO = details: in vivo
# [2] = in-vitro, 14C-labeled
# [3] = system: erythrocyte 2,3-bisphosphoglycerate (2,3-BPG); details: following phosphate loading
# induced clots = details: dogs with induced clots
# blood flow = details: animal study
# blood clots = details: human trials, feeding
molecule,measurement,setting,value
Vitamin A,renal EPO production,renal EPO production,increase
"CCCCC[C@H](O)/C=C/[C@H]1[C@H](O)CC(=O)[C@@H]1C/C=C\CCCC(=O)O [PGE2, reference compound]",kidney production of EPO,kidney production of EPO,increased
same,iron incorporation in RBC,RBC,significant increase
[Se] [selenium],elemental concentration in whole blood and plasma,[1],significant increase
C[N+](C)(C)CC(O)CC(=O)[O-] (stereo not drawn) [Carnitine],erythrocyte survival time,erythrocyte,increase
O=C1O[C@H]([C@@H](O)CO)C(O)=C1O [Vitamin C],hemoglobin levels,hemoglobin levels,significant increases
same,responsiveness to EPO,responsiveness to EPO,improve
Vitamin E,endogenous glutathione,endogenous glutathione,stabilize
"CCCCC/C=C\C/C=C\C/C=C\C/C=C\CCCC(=O)O [Arachidonic Acid, all-cis-5,8,11,14-eicossatetraenoic acid]",kidney production of EPO,kidney production of EPO,increased
same,prostaglandins produced from Arachidonic acid,[2],"PGD2, PGE2, PGF2 alpha and 6-keto-PGF1 alpha"
phosphate,"erythrocyte 2,3-BPG",[3],significant increase
B1,time to regain normal blood circulation,induced clots,within five hours
same,regain in blood flow,blood flow,62%
same,ability to dissolve blood clots,blood clots,heightened ability to dissolve blood clots
B2,regain in blood flow,blood flow,15.8%
